According to publication PMC3909768 (Journal of Cancer, 2014):
Where “and” joins values, the source holds several entries; their conditions need not be identical. Equal values may be shown once.

Key:
LnCaP-Z2 tumors = test: LnCaP-Z2 xenograft antitumor efficacy; type: in vivo, male CB17-SCID mice
[1] = Drug concentration in plasma and xenograft tumor after 21-day dosing; conditions: male, CB17-SCID, mouse, in vivo
[2] = Brain and prostate distribution after single IV in rats; conditions: rat, in vivo, 2 mg/kg; for concentration at 30 min / concentration at 120 min: single IV 2 mg/kg
AR-LBD = molecular target: T1, AR-LBD (Homo sapiens, UniProt P10275); test: biochemical
T1 sequence (P10275 669-900 limits assumed): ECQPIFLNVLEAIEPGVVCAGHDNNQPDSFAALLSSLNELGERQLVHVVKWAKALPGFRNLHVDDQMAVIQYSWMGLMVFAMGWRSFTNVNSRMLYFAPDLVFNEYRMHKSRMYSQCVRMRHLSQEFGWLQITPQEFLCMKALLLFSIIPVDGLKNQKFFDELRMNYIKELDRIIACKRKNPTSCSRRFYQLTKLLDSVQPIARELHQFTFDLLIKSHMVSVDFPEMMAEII

[3] = Plasma protein binding by equilibrium dialysis, rat; type: in vitro ADME; conditions: Rats plasma, 1 uM, equilibrium dialysis 4h 37C
[4] = tested on: AR-dependent PSA expression in prostate cancer cells LnCAP; test: DHT-induced PSA expression in LnCAP cells; type: cell-based
Dog pharmacokinetics = type: in vivo, male beagle dogs; conditions: multiple oral doses in dogs
GABA receptors = test: [3H]GABA binding, rat cerebral cortex membranes; conditions: 10uM
CYP 2C9 = CYP 2C9 (Homo sapiens, UniProt P11712); test: CYP inhibition; type: in vitro ADME; conditions: concentrations up to 10 uM
CYP 1A2 = molecular target: T2, CYP 1A2 (Homo sapiens, UniProt P05177); test: CYP inhibition; type: in vitro ADME; conditions: concentrations up to 10 uM
T2 sequence (P05177 1-516): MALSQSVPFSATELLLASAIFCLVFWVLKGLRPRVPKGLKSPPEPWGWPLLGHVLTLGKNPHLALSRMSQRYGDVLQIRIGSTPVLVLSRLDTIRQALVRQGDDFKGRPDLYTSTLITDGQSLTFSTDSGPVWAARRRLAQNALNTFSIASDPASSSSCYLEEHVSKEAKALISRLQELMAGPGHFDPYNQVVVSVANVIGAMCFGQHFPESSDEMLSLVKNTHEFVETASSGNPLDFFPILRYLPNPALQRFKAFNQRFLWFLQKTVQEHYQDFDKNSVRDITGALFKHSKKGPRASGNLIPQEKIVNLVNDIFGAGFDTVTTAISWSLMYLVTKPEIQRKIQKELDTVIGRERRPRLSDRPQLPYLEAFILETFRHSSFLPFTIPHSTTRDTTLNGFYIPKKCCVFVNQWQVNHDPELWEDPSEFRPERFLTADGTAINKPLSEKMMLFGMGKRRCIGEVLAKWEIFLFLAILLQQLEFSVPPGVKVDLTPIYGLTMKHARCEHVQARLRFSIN

Rat pharmacokinetics = conditions: for C24h: after 14 administrations; for AUC(0-inf) / k el / MRT inf / concentration at 24 h / Cmax / Tmax / half-life: male, Sprague Dawley, rat, in vivo
[5] = Plasma protein binding by equilibrium dialysis, mouse; type: in vitro ADME; conditions: Mice plasma, 1 uM, equilibrium dialysis 4h 37C
AR = molecular target: T3, AR (Homo sapiens, UniProt P10275); type: cell-based
T3 sequence (P10275 1-920): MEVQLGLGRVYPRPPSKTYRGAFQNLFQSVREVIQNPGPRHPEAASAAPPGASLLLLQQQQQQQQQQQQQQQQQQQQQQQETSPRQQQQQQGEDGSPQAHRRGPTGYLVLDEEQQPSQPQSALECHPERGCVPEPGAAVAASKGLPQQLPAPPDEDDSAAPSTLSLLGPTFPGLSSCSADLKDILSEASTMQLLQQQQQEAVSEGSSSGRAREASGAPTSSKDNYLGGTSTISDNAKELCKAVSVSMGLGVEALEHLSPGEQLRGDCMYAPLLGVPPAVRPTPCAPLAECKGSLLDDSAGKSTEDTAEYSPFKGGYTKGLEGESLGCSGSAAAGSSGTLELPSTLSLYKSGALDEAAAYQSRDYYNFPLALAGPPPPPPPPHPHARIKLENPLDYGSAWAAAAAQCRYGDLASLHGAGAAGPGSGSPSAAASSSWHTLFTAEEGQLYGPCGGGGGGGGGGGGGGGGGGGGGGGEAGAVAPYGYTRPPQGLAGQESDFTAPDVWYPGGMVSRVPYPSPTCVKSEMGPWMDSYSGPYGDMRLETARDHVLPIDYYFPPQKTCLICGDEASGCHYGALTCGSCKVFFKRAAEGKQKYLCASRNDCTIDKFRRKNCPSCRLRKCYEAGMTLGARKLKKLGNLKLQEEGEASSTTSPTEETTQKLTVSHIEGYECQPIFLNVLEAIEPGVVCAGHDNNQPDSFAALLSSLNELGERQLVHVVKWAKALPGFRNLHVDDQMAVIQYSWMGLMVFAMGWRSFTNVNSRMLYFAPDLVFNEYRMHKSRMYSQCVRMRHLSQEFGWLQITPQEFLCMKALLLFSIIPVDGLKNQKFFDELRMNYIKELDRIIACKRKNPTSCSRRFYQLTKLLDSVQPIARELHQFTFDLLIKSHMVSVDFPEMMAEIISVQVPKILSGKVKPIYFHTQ

CYP 2C19 = CYP 2C19 (Homo sapiens, UniProt P33261); test: CYP inhibition; type: in vitro ADME; conditions: concentrations up to 10 uM
[6] = tested on: androgen-dependent reproductive organs; test: Weight of androgen-dependent reproductive organs in rats, 14 days; type: in vivo, male rats; conditions: 30, 100 and 300 mg/kg/day po
CYP3A = CYP3A induction in human hepatocytes; type: in vitro ADME; conditions: for CYP 3A induction, Positive control, %: human hepatocytes, 48 hours, listed as ONC1-0013B
[7] = Plasma protein binding by equilibrium dialysis, human; type: in vitro ADME; conditions: 1 uM, equilibrium dialysis 4h 37C
[8] = tested on: spermatozoon in epididymis; test: Concentration of spermatozoon in epididymis of rats, 60 days; type: in vivo, male rats; conditions: n=6
CYP 2D6 = CYP 2D6 (Homo sapiens, UniProt P10635); test: CYP inhibition; type: in vitro ADME; conditions: concentrations up to 10 uM
CYP 3A4 = CYP 3A4 (Homo sapiens, UniProt P08684); test: CYP inhibition; type: in vitro ADME; conditions: concentrations up to 10 uM
[9] = Plasma protein binding by equilibrium dialysis, dog; type: in vitro ADME; conditions: Dogs plasma, 1 uM, equilibrium dialysis 4h 37C

CYP 2C19, sequence (P33261 whole entry): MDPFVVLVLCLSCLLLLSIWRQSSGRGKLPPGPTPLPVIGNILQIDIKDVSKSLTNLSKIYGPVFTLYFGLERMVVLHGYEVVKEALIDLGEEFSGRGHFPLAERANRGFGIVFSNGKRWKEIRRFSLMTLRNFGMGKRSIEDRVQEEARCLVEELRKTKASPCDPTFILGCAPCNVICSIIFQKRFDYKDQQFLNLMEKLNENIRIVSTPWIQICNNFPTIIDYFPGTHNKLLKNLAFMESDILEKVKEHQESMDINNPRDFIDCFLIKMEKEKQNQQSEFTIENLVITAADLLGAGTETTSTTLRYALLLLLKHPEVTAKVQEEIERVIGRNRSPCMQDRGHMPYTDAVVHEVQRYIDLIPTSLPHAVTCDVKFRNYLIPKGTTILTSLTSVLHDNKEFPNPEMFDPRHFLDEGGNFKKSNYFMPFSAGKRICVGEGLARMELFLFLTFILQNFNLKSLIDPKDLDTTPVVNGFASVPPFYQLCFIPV
CYP 2D6, sequence (P10635 whole entry): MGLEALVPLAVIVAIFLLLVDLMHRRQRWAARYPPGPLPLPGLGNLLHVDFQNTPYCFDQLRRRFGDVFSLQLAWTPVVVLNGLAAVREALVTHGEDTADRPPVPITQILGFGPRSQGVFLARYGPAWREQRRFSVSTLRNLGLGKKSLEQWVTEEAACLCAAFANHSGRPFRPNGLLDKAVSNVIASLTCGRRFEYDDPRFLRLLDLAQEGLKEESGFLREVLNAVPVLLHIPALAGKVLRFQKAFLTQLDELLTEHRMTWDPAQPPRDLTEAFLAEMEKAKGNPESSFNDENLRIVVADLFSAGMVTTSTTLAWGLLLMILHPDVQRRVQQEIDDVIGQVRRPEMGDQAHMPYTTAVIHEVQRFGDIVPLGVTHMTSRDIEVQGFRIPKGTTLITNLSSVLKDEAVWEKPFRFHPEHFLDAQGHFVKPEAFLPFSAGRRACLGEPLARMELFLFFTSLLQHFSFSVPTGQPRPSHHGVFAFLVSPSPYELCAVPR
CYP 2C9, sequence (P11712 whole entry): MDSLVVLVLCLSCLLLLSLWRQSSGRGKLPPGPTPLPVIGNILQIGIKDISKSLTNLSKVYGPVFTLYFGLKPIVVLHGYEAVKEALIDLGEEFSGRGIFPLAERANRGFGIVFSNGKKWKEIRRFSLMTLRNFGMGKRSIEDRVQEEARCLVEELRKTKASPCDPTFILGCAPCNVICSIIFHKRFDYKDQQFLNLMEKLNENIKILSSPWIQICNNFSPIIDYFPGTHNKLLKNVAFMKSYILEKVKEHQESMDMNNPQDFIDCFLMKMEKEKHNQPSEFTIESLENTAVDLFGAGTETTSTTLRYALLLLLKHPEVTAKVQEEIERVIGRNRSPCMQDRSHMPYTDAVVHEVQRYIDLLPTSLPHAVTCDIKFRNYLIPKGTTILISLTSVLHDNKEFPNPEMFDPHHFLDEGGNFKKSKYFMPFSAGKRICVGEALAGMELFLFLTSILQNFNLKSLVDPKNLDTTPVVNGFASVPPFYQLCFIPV
CYP 3A4, sequence (P08684 whole entry): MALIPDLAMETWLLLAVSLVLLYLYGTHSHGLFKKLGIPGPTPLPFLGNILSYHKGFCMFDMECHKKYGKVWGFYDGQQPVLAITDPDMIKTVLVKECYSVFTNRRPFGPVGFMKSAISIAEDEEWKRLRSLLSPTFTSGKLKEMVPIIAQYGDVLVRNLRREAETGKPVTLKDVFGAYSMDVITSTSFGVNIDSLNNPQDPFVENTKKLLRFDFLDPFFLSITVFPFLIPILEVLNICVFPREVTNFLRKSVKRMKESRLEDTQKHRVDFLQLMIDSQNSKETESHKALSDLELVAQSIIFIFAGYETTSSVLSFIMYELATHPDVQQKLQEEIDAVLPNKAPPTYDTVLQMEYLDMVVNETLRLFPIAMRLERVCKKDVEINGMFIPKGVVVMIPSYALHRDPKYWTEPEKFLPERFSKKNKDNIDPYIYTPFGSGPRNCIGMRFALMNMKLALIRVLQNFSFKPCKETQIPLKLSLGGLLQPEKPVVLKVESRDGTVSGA

Structure (SMILES): CC(O)(CS(=O)(=O)c1ccc(F)cc1)C(=O)Nc1ccc(C#N)c(C(F)(F)F)c1 (stereo not shown) [Bicalutamide, reference compound]
- antitumor efficacy, in words (LnCaP-Z2 tumors; 50 mg/kg once daily): less effective
- Kp at 24 h ([1]; 50 mg/kg): 2.5 ± 1.36
- concentration at 24 h ([1]; 50 mg/kg): 3250 ng/mL and 8740 ng/g

Structure (SMILES): CNC(=O)c1ccc(N2C(=S)N(c3ccc(C#N)c(C(F)(F)F)c3)C(=O)[C@]23CCOC3)cc1F [ONC1-13B, 4-[(R)-3-(4-Cyano-3-trifluoromethyl-phenyl)-4-oxo-2-thioxo-7-oxa-1,3-diaza-spiro[4.4]non-1-yl]-2-fluoro-N-methyl-benzamide]
- Kp [2]: 1.2 to 1.6
- Kp at 30 min [2]: 1.55 ± 0.08
- Kp at 120 min [2]: 1.2 ± 0.36
- concentration at 30 min ([2]; Prostate): 1160 ± 164 ng/g
- concentration at 120 min ([2]; Prostate): 625 ± 108 ng/g
- concentration at 30 min ([2]; brain): 145 ± 22 ng/g
- concentration at 120 min ([2]; brain): 89 ± 10 ng/g
- concentration at 30 min ([2]; plasma): 746 ± 104 ng/mL
- concentration at 120 min ([2]; plasma): 522 ± 57 ng/mL
- IC50 (AR-LBD): 19.9 µM
- Bound fraction [3]: 89.7%
- fold more efficient than bicalutamide in inhibiting DHT-induced PSA expression [4]: around 10 fold
- steady-state reached after (Dog pharmacokinetics): 10 administrations
- inhibition of [3H]GABA specific binding (GABA receptors): 42%
- inhibition of CYP 2C9 activity (CYP 2C9): doesn`t inhibit
- inhibition of CYP 1A2 activity (CYP 1A2): doesn`t inhibit
- C24h (Rat pharmacokinetics; Multiple PO 100 mg/kg): 2 794 ng/mL
- C24h (Rat pharmacokinetics; Multiple PO 300 mg/kg): 2 122 ng/mL
- Vss_obs (Rat pharmacokinetics; Single IV 1 mg/kg): 2.0 L/kg
- Сl (Rat pharmacokinetics; Single IV 1 mg/kg): 6.4 mL/min/kg
- AUC(0-inf) (Rat pharmacokinetics; iv, 1 mg/kg): 2.57 µg·h/mL
- k el (Rat pharmacokinetics; iv, 1 mg/kg): 4.64e-05 s⁻¹
- MRT inf (Rat pharmacokinetics; po, 5 mg/kg): 7 h
- concentration at 24 h (Rat pharmacokinetics; po, 5 mg/kg): 51 ng/mL
- k el (Rat pharmacokinetics; po, 5 mg/kg): 3.61e-05 s⁻¹
- AUC(0-inf) (Rat pharmacokinetics; po, 30 mg/kg): 95 µg·h/mL
- Cmax (Rat pharmacokinetics; po, 30 mg/kg): 7160 ng/mL
- MRT inf (Rat pharmacokinetics; po, 30 mg/kg): 4 h
- Tmax (Rat pharmacokinetics; po, 30 mg/kg): 4 h
- concentration at 24 h (Rat pharmacokinetics; po, 30 mg/kg): 159 ng/mL
- half-life (Rat pharmacokinetics; po, 30 mg/kg): 4 h
- k el (Rat pharmacokinetics; po, 30 mg/kg): 5.28e-05 s⁻¹
- AUC(0-inf) (Rat pharmacokinetics; po, 100 mg/kg): 268 µg·h/mL
- Cmax (Rat pharmacokinetics; po, 100 mg/kg): 16400 ng/mL
- MRT inf (Rat pharmacokinetics; po, 100 mg/kg): 10 h
- Tmax (Rat pharmacokinetics; po, 100 mg/kg): 4 h
- half-life (Rat pharmacokinetics; po, 100 mg/kg): 8 h
- k el (Rat pharmacokinetics; po, 100 mg/kg): 2.5e-05 s⁻¹
- AUC(0-inf) (Rat pharmacokinetics; po, 300 mg/kg): 314 µg·h/mL
- Cmax (Rat pharmacokinetics; po, 300 mg/kg): 20500 ng/mL
- MRT inf (Rat pharmacokinetics; po, 300 mg/kg): 7 h
- Tmax (Rat pharmacokinetics; po, 300 mg/kg): 4 h
- half-life (Rat pharmacokinetics; po, 300 mg/kg): 6 h
- k el (Rat pharmacokinetics; po, 300 mg/kg): 3.06e-05 s⁻¹
- antitumor efficacy, in words (LnCaP-Z2 tumors; 20 mg/kg twice daily): highest antitumor efficacy
- tumors regressed (LnCaP-Z2 tumors; 20 mg/kg twice daily po, 21 days): 4 of 8
- antitumor efficacy, in words (LnCaP-Z2 tumors; once daily at 20 or 50 mg/kg, vs MDV3100 10mg/kg once daily): comparable to MDV3100
- Bound fraction [5]: 90.7%
- inhibition of 6a-Fluotestosterone induced AR nuclear translocation, in words (AR): completely inhibit
- inhibition of CYP 2C19 activity (CYP 2C19): doesn`t inhibit
- weight of prostate, epididymis and seminal vesicles, in words [6]: significantly and dose-dependently decreases
- CYP3A induction, in words (CYP3A; 1uM): no activity
- CYP 3A induction, Positive control, % (CYP3A; 1 uM): 0.0±2.0% and 3.3±0.6%
- fold less potent in CYP3A induction compared to MDV3100 and ARN-509 (CYP3A; 10uM): ~ 2 fold
- CYP 3A induction, Positive control, % (CYP3A; 10 uM): 51.3±3.5% and 42.0±6.1%
- Bound fraction [7]: 89.3%
- Concentration of spermatozoon in epididymis, M±m ([8]; 30 mg/kg po): 29,00 ± 2,73 х 10^6/ml
- Concentration of spermatozoon in epididymis, M±m ([8]; 300 mg/kg po): 16,00 ± 2,37 х 10^6/ml
- Kp at 24 h ([1]; 20 mg/kg): 0.78 ± 0.08
- concentration at 24 h ([1]; 20 mg/kg): 76.2 ng/mL and 52.6 ng/g
- Kp at 24 h ([1]; 50 mg/kg): 0.77 ± 0.13
- concentration at 24 h ([1]; 50 mg/kg): 154 ng/mL and 138 ng/g
- Kp at 16 h ([1]; po, 20 mg/kg): 0.72 ± 0.05
- concentration at 16 h ([1]; po, 20 mg/kg): 456 ng/mL and 442 ng/g
- inhibition of CYP 2D6 activity (CYP 2D6): doesn`t inhibit
- inhibition of CYP 3A4 activity (CYP 3A4): doesn`t inhibit
- Bound fraction [9]: 89.5%
